The data set in a line: RP, Waters ACQUITY UPLC BEH C18, 100 × 1 mm, 1.7 µm, 50 °C, 0.3 mL/min, estimated dead time 0.17 min; A: water + 0.1% formic acid + 20 mM ammonium formate; B: methanol + 0.1% formic acid + 20 mM ammonium formate; gradient (min/%B) 0/0 15/100 21/100 22/0 30/0. The settings on record: stereoisomer not certain.
Take `CCOc1cc(Oc2ccc(C(F)(F)F)cc2Cl)ccc1[N+](=O)[O-]` [Oxyfluorfen]: the LC retention time is 16.8 min.
With `CCC(C(N)=O)(C(N)=O)c1ccccc1` [PEMA], the LC retention time was 7.76 min.
Consider `CCCCCCCCCCCCCCCC(=O)NCCO` [Palmitoylethanolamide], for which the LC retention time was 18.4 min.
Consider `Nc1nc2c(ncn2CCC(CO)CO)c(=O)[nH]1` [Penciclovir], for which the LC retention time is 3.58 min.
The result for `Cc1cc([N+](=O)[O-])c(N)c([N+](=O)[O-])c1C` [Pendimethalin-N-dealkylation] reads 14.6 min.
For `CCC=Nc1c([N+](=O)[O-])cc(C)c(C)c1[N+](=O)[O-]` [Pendimethalin-desethyl], the LC retention time was 8.48 min.
Take `NC(Cc1ccccc1)C(=O)N1CCCC1C(=O)O` (centres undefined) [Phe-Pro]: the LC retention time is 8.7 min.
As for `c1ccc2c(c1)Nc1ccccc1S2` [Phenothiazine], the LC retention time was 14.9 min.
Take `CCOC(=O)C(SP(=S)(OC)OC)c1ccccc1` (centres undefined) [Phenthoate]: the LC retention time was 15.4 min.
As for `O=C1NC(=O)C(c2ccccc2)(c2ccccc2)N1` [Phenytoin], the LC retention time was 12 min.
In the case of `N#Cc1ccccc1C#N` [Phthalonitrile], the LC retention time is 8.45 min.
Take `Nc1ccc(F)cc1` [Picolinafen-Fluoroaniline]: the LC retention time was 2.59 min.
For the compound `O=C(O)c1cccc(Oc2cccc(C(F)(F)F)c2)n1` [Picolinafen-OH-O-dealkylation], the LC retention time was 14 min.
As to `CCc1cc(C)cc(CC)c1-c1c(OC(=O)C(C)(C)C)n2n(c1=O)CCOCC2` [Pinoxaden], the LC retention time was 10.5 min.
Turning to `CCOC(=O)OC1(C(=O)COC(=O)CC)CCC2C3CCC4=CC(=O)C=CC4(C)C3C(O)CC21C` (centres undefined) [Prednicarbate], the LC retention time was 15.3 min.
To `CC12C=CC(=O)C=C1CCC1C2C(O)CC2(C)C1CCC2(O)C(=O)CO` (centres undefined) [Prednisolone] belongs 12.4 min; to `CCCCCC1=CC(=O)C=C(OC)C1=O` [Primin], 14.3 min.
On to `CC12CC1(C)C(=O)N(c1cc(Cl)cc(Cl)c1)C2=O` (centres undefined) [Procymidone], for which the LC retention time is 14.6 min.
Consider `CSc1nc(NC(C)C)nc(NC(C)C)n1` [Prometryne], for which the LC retention time is 14.2 min.
As for `CC(C)=NOCCOC(=O)C(C)Oc1ccc(Oc2cnc3cc(Cl)ccc3n2)cc1` (centres undefined) [Propaquizafop], the LC retention time is 16.8 min.
In the case of `CC(C)Nc1nc(Cl)nc(NC(C)C)n1` [Propazin], the LC retention time is 14 min.
On to `CCNP(=S)(OC)OC(C)=CC(=O)OC(C)C` (centres undefined) [Propetamphos], for which the LC retention time is 14.6 min.
For the compound `CC(C)OC(=O)Nc1ccccc1` [Propham], the LC retention time was 12.7 min.
As to `CC1=NNC(=O)N(N=Cc2cccnc2)C1` [Pymetrozine], the LC retention time was 5.76 min.
Consider `CC1=C(C(=O)Nc2ccccc2)CCCO1` [Pyracarbolid], for which the LC retention time was 11.7 min.
Regarding `CCOC(=O)c1cn2nc(OP(=S)(OCC)OCC)cc2nc1C` [Pyrazophos], the LC retention time is 15.9 min.
Take `CON=C(Cc1cccnc1)c1ccc(Cl)cc1Cl` [Pyrifenox]: the LC retention time is 14.3 min.
In the case of `COc1cc(OC)n2nc(NS(=O)(=O)c3c(C(F)(F)F)ccnc3OC)nc2n1` [Pyroxsulam], the LC retention time is 11.7 min.
With `O=c1c(O)c(-c2ccc(O)c(O)c2)oc2cc(O)cc(O)c12` [Quercetin], the LC retention time was 11.4 min.
`O=C(O)c1ccc2ccccc2n1` [Quinaldic acid]: the LC retention time is 7.3 min.
For the compound `CCOP(=S)(OCC)Oc1cnc2ccccc2n1` [Quinalophos], the LC retention time is 15.3 min.
On to `CC1OC(OCC2OC(Oc3c(-c4ccc(O)c(O)c4)oc4cc(O)cc(O)c4c3=O)C(O)C(O)C2O)C(O)C(O)C1O` (centres undefined) [Rutin], for which the LC retention time was 9.75 min.
`CCC(C(=O)O)C1CCC(C)C(C(C)C(O)C(C)C(=O)C(CC)C2OC3(C=CC(O)C4(CCC(C)(C5CCC(O)(CC)C(C)O5)O4)O3)C(C)CC2C)O1` (centres undefined) [Salinomycin]: the LC retention time is 18.4 min.
As to `CC1CCCCC1NC(=O)Nc1ccccc1` (centres undefined) [Siduron], the LC retention time is 13.9 min.
For `CCC(C=CC(C)C1CCC2C3CC=C4CC(O)CCC4(C)C3CCC12C)C(C)C` (centres undefined) [Stigmasterol], the LC retention time is 21.3 min.
For the compound `O=C(O)CCCCCCC(=O)O` [Suberic_acid], the LC retention time was 9.6 min.
The result for `Nc1ccc(S(=O)(=O)Nc2cnc3ccccc3n2)cc1` [Sulfachinoxalin] reads 14 min.
Consider `COc1ccc(NS(=O)(=O)c2ccc(N)cc2)nn1` [Sulfamethoxypyridazin], for which the LC retention time was 8.03 min.
As to `O=S1(=O)CCCC1` [Sulfolane], the LC retention time is 2.73 min.
Consider `CC(=O)N1N=C(c2ccc(N)cc2)c2cc3c(cc2CC1C)OCO3` (centres undefined) [Talampanel], for which the LC retention time was 11.5 min.
The result for `CC(=O)OC1C(=O)C2(C)C(O)CC3OCC3(OC(C)=O)C2C(OC(=O)c2ccccc2)C2(O)CC(OC(=O)C(O)C(NC(=O)c3ccccc3)c3ccccc3)C(C)=C1C2(C)C` (centres undefined) [Taxol] reads 15 min; that for `C=CNc1nc(NC(C)(C)C)nc(SC)n1` [Terbutryn-desaturated], 14.3 min.
Regarding `CCNc1nc(=S)nc(NC(C)(C)C)[nH]1` [Terbutryn-desmethyl], the LC retention time is 11.9 min.
On to `C[N+](C)(C)C` [Tetramethylammonium cation], for which the LC retention time was 2 min.
To `NC(=O)N=C1SCCN1Cc1ccc(Cl)nc1` [Thiacloprid amide] belongs 8.82 min.
Regarding `CNC(=O)N(C)c1nnc(C(F)(F)F)s1` [Thiazafluron], the LC retention time was 11.8 min.
Consider `CNC(=O)ON=C(CSC)C(C)(C)C` [Thiofanox], for which the LC retention time is 11.7 min.
Turning to `CCOC(=O)C1(c2ccccc2)CCC=CC1N(C)C` (centres undefined) [Tilidine], the LC retention time is 9.57 min.
As to `CC(C)(C)C(=O)C(Oc1ccc(Cl)cc1)n1cncn1` (centres undefined) [Triadimefon], the LC retention time was 14.5 min.
Regarding `[O-][n+]1nc(-n2ccnc2)nc2ccc(Cl)cc21` [Triazoxide], the LC retention time was 11.8 min.
Regarding `O=S(=O)(O)C(F)(F)F` [Trifluoromethanesulfonic acid], the LC retention time was 2 min.
Turning to `COCCOCCOCCOC` [Triglyme], the LC retention time was 8.28 min.
Turning to `COP(=O)(OC)OC` [Trimethyl phosphate], the LC retention time is 6.17 min.
Consider `CCOC(=O)C1CC(=O)C(=C(O)C2CC2)C(=O)C1` (centres undefined) [Trinexapac-ethyl], for which the LC retention time is 13.2 min.
Regarding `O=P(OCC(Cl)CCl)(OCC(Cl)CCl)OCC(Cl)CCl` (centres undefined) [Tris(2,3-dichloropropyl) phosphate], the LC retention time is 15.6 min.
`CCCCC(CC)COP(=O)(OCC(CC)CCCC)OCC(CC)CCCC` (centres undefined) [Tris(2-Ethylhexyl) phosphate]: the LC retention time is 19.9 min.
Consider `Cc1ccccc1OP(=O)(Oc1ccccc1C)Oc1ccccc1C` [Tris(2-methylphenyl) phosphate (tri-o-cresyl phosphate)], for which the LC retention time was 17 min.
With `O=C(OC1CC2CCC(C1)[N+]21CCCC1)C(O)(c1ccccc1)c1ccccc1` (centres undefined) [Trospium], the LC retention time is 14.2 min.
The result for `CC(C)(c1ccccc1)c1cc(-n2nc3ccccc3n2)c(O)c(C(C)(C)c2ccccc2)c1` [UV-234] reads 16.6 min; that for `CC(C)(C)c1cc(-n2nc3ccccc3n2)c(O)c(C(C)(C)C)c1` [UV-320], 19.8 min; that for `Cc1cc(-n2nc3ccc(Cl)cc3n2)c(O)c(C(C)(C)C)c1` [UV-326], 17.6 min.
As to `CC(C)(C)c1cc(-n2nc3ccc(Cl)cc3n2)c(O)c(C(C)(C)C)c1` [UV-327], the LC retention time was 10.2 min.
`CC1CCC2(C(=O)O)CCC3(C)C(=CCC4C5(C)CCC(O)C(C)(C)C5CCC43C)C2C1C` (centres undefined) [Ursolic acid]: the LC retention time was 18.5 min.
On to `O=C1CCCC=CCCCCCCCCCC1` [Velvione], for which the LC retention time is 18.1 min.
`O=c1c2ccccc2oc2ccccc12` [Xanthon]: the LC retention time is 13.6 min.
For `O=C(O)c1cc(=O)c2cccc(O)c2[nH]1` [Xanthurenic acid], the LC retention time is 6.8 min.
As for `Cc1cc(C(C)(C)C)cc(C)c1CC1=NCCN1` [Xylometazoline], the LC retention time was 12.4 min.
To `Cc1cn(C2CC(N=[N+]=[N-])C(CO)O2)c(=O)[nH]c1=O` (centres undefined) [Zidovudine] belongs 8.04 min; to `NS(=O)(=O)Cc1noc2ccccc12` [Zonisamide], 8.02 min.
Take `CCCCCC(O)CC(=O)CCc1ccc(O)c(OC)c1` (centres undefined) [[6]-Gingerol]: the LC retention time was 14 min.
For the compound `CC(=O)Nc1ccc(OC2OC(C(=O)O)C(O)C(O)C2O)cc1` (centres undefined) [acetaminophen_glucuronide], the LC retention time was 3.8 min.
The result for `COc1ccc2c3c1OC1C(OC4OC(C(=O)O)C(O)C(O)C4O)C=CC4C(C2)N(C)CCC341` (centres undefined) [codeine-6-glucuronide] reads 11.4 min.
For the compound `NCCc1ccc(OC2OC(C(=O)O)C(O)C(O)C2O)c(O)c1` (centres undefined) [dopamine_glucuronide], the LC retention time was 9.2 min.
On to `CNC(C)C(O)c1ccccc1` (centres undefined) [ephedrine], for which the LC retention time was 7.4 min.
`NC(=O)Cc1c[nH]c2ccccc12` [indoleacetamide]: the LC retention time was 8 min.
Turning to `CCC(C(N)=O)N1CCCC1=O` (centres undefined) [levetiracetam], the LC retention time was 6.9 min.
Regarding `Cc1cnc(NC(=O)C2=C(O)c3ccccc3S(=O)(=O)N2C)s1` [meloxicam], the LC retention time is 13.3 min.
On to `NC(Cc1ccccc1)C(=O)O` (centres undefined) [phenylalanine], for which the LC retention time was 4.7 min.
To `O=C1NC(=O)c2ccccc21` [phthalimide] belongs 7.8 min.

Source of the values: the RepoRT retention time repository (doi:10.1021/acs.analchem.1c00972).
